Laboratory results taken from article doi:10.1101/810010v1 (biorxiv, 2019).

Biological target: Syt1 C2B (Mus musculus, UniProt P46096)
Test: […]-1H HSQC NMR titration, global fit of chemical shifts, single-site model
Assay type: binding

Chain of Syt1 C2B (P46096 271-421): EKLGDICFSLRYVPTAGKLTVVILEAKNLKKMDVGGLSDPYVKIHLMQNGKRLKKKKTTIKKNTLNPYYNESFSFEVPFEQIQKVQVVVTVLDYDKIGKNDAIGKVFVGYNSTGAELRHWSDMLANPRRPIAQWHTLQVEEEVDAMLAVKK

## CCCC(=O)OC[C@H](COP(=O)(O)O[C@@H]1[C@H](O)[C@H](O)[C@@H](OP(=O)(O)O)[C@H](OP(=O)(O)O)[C@H]1O)OC(=O)CCC [di-C4-PtdIns(4,5)P2]
  Kd: 215 ± 16 µM
